As usually defined, the IC50 is the point on the concentration scale where inhibition reaches its midpoint.

The target in one assay is SHP2 (Homo sapiens (Human), UniProt Q06124). Description: SHP2 allosteric inhibition assay (DiFMUP prompt fluorescence). Type of assay: biochemical. The note with it: Table 1; 0.25 nM SHP2 with 0.5 μM peptide IRS1_pY1172(dPEG8)pY1222, substrate DiFMUP 100 μM.
Sequence of SHP2 (Q06124 whole entry): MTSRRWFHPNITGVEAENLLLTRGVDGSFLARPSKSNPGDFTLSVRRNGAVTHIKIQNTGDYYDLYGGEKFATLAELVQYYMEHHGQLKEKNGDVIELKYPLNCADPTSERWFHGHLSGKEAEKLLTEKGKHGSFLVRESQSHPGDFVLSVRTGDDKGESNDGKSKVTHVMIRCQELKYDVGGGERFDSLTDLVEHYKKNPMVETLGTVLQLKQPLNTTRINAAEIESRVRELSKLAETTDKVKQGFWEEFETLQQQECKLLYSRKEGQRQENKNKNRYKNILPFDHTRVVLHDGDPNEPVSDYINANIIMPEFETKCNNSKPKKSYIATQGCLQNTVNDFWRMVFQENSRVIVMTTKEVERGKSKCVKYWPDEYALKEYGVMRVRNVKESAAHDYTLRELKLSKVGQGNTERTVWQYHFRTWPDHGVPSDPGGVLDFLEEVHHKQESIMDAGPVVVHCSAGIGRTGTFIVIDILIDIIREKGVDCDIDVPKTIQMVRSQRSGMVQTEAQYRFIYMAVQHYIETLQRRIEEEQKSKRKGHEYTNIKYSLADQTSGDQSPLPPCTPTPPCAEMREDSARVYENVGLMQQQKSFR
`O=S(=O)(F)Oc1cnc2c(N3CCCc4ncccc43)n[nH]c2n1` [Compound 8A] returned an IC50 of at least 10000 nM.
Still for that read-out and setting: with `CC1(CN)CCN(c2cnc3c(N4CCCc5cc(OS(=O)(=O)F)ccc54)n[nH]c3n2)CC1` [Compound 6A] the figure was below 1000 nM; with `O=S(=O)(F)Oc1cccc2c1CCCN2c1n[nH]c2nc(N3CCCCC3)cnc12` [Compound 2A], at least 10000 nM; with `C[C@@H]1OCC2(CCN(c3cnc4c(N5CCCc6cc(OS(=O)(=O)F)ccc65)n[nH]c4n3)CC2)[C@@H]1N` [Compound 7A, 1-(6-((3S,4S)-4-amino-3-methyl-2-oxa-8-azaspiro[4.5]decan-8-yl)-1H-pyrazolo[3,4-b]pyrazin-3-yl)-1,2,3,4-tetrahydroquinolin-6-yl Sulfurofluoridate], below 1000 nM.

The same assay, now with this note: Table 2; 0.25 nM SHP2 with 0.5 μM peptide IRS1_pY1172(dPEG8)pY1222, substrate DiFMUP 100 μM.
Turning to `NCc1ccccc1-c1cnc2c(N3CCCc4ncccc43)n[nH]c2n1` [Compound 10B, (2-(3-(3,4-dihydro-1,5-naphthyridin-1(2H)-yl)-1H-pyrazolo[3,4-b]pyrazin-6-yl)phenyl)methanamine], the IC50 is at least 10000 nM.
On the same count and under the same terms, with `C[C@H]1CCN(c2n[nH]c3nc([C@H]4CC[C@@H](CN)CC4)cnc23)c2ccc(C#N)cc21` [Compound 18B, (4S)-4-methyl-1-{6-[(1r,4r)-4-(aminomethyl)cyclohexyl]-1H-pyrazolo[3,4-b]pyrazin-3-yl}-1,2,3,4-tetrahydroquinoline-6-carbonitrile] the figure was below 1000 nM; with `CN(CCN)C(=O)c1cnc2c(-c3cccc(Cl)c3F)n[nH]c2n1` [Compound 7B], at least 10000 nM.
In turn, `COC(=O)C1(c2cnc3c(-c4cccc(Cl)c4F)n[nH]c3n2)CCNCC1` [Compound 1B, methyl 4-(3-(3-chloro-2-fluorophenyl)-1H-pyrazolo[3,4-b]pyrazin-6-yl)piperidine-4-carboxylate] showed an IC50 below 1000 nM.
`CC1(CN)CCN(C(=O)c2cnc3c(-c4cccc(Cl)c4F)n[nH]c3n2)C1` (stereo not shown) [Compound 6B] yielded an IC50 of at least 10000 nM.

The same assay, now with this note: Table 3; 0.25 nM SHP2 with 0.5 μM peptide IRS1_pY1172(dPEG8)pY1222, substrate DiFMUP 100 μM.
The compound `CC1(CN)CCN(c2nc3[nH]nc(N4CCCc5ncccc54)c3nc2C#N)CC1` [Compound 7C, 6-[4-(aminomethyl)-4-methylpiperidin-1-yl]-3-(1,2,3,4-tetrahydro-1,5-naphthyridin-1-yl)-1H-pyrazolo[3,4-b]pyrazine-5-carbonitrile] displayed an IC50 below 1000 nM.
As for `C[C@@H]1OCC2(CCN(c3nc4[nH]nc(N5CCCc6ncccc65)c4nc3CO)CC2)[C@@H]1N` [Compound 14C, (6-((3S,4S)-4-amino-3-methyl-2-oxa-8-azaspiro[4.5]decan-8-yl)-3-(3,4-dihydro-1,5-naphthyridin-1(2H)-yl)-1H-pyrazolo[3,4-b]pyrazin-5-yl)methanol], the IC50 is below 1000 nM.
Still for that read-out and setting: with `CC1(CN)CCN(c2nc3[nH]nc(N4CCCc5ncccc54)c3nc2O)CC1` [Compound 5C, 6-(4-(aminomethyl)-4-methylpiperidin-1-yl)-3-(3,4-dihydro-1,5-naphthyridin-1(2H)-yl)-1H-pyrazolo[3,4-b]pyrazin-5-ol] the figure was below 1000 nM.
The same measure, in the same setting: with `C[C@@H]1OCC2(CCN(c3nc4[nH]nc(-c5cccc(Cl)c5F)c4nc3CO)CC2)[C@@H]1N` [Compound 19C] the figure was below 1000 nM.
As to `Cc1nc2c(N3CCCc4ncccc43)n[nH]c2nc1N1CCC(C)(CN)CC1` [Compound 6C, (1-(3-(3,4-dihydro-1,5-naphthyridin-1(2H)-yl)-5-methyl-1H-pyrazolo[3,4-b]pyrazin-6-yl)-4-methylpiperidin-4-yl)methanamine], the IC50 is below 1000 nM.
On the same count and under the same terms, with `CC1(CN)CCN(c2nc3[nH]nc(N4CCCc5ncccc54)c3nc2CO)CC1` [Compound 11C, (6-(4-(aminomethyl)-4-methylpiperidin-1-yl)-3-(3,4-dihydro-1,5-naphthyridin-1(2H)-yl)-1H-pyrazolo[3,4-b]pyrazin-5-yl)methanol] the figure was below 1000 nM.

The assay is the same for the next values; noted with them: Table 4; 0.25 nM SHP2 with 0.5 μM peptide IRS1_pY1172(dPEG8)pY1222, substrate DiFMUP 100 μM.
For `CN(c1cnc2c(-c3cccc(Cl)c3F)n[nH]c2n1)c1ncccc1CCN` [Compound 2D, N-(3-(2-aminoethyl)pyridin-2-yl)-3-(3-chloro-2-fluorophenyl)-N-methyl-1H-pyrazolo[3,4-b]pyrazin-6-amine], the IC50 was below 1000 nM.

(Values after US12138263B2, “Pyrazolo[3,4-b]pyrazine SHP2 phosphatase inhibitors and methods of use thereof” (Relay Therapeutics, Inc., priority 2018, dated 2024).)
